One assay addresses T1, recEh Trx (Entamoeba histolytica, UniProt C4LYR0).
T1 construct: gene EHI_004490; C-terminal His6 tag, Met1 removed, one disulfide, 12,322 Da; pET17b, E. coli BL21(DE3), Ni-NTA
T1 sequence (C4LYR0 2-103): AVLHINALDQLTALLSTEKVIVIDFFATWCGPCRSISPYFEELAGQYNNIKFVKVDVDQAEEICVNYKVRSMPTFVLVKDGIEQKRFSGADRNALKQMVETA
Briefly: intact-protein LC-ESI-QTOF-MS after expression with drug. The assay is classed as cell-based. Particulars: covalent; reduced metabolite; drug present during expression in E. coli.

Another assay concerns the target T2, recEh TrxR (Entamoeba histolytica, UniProt C4LW95).
T2 construct: gene EHI_155440; C-terminal His6 tag, pET17b, E. coli BL21(DE3), Ni-NTA; C-terminal native peptide 292-314
T2 sequence (C4LW95 1-314): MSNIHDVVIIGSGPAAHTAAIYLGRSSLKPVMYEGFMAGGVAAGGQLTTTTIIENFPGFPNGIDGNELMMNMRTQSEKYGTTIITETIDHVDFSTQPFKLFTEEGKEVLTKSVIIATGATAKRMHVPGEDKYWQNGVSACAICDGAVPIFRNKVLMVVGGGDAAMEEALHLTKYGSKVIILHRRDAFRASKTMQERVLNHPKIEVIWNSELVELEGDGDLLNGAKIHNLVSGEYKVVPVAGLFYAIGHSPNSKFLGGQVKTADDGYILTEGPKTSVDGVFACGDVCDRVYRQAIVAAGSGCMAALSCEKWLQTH
The assay is described as above. To be noted: covalent; reduced metabolite; drug present during expression in E. coli. The assay is classed as cell-based.

As for tinidazole [compound 2], the mass increment at recEh Trx and at recEh TrxR was 217 Da throughout.

These data come from publication PMC1933457, “Nitroimidazole Action in Entamoeba histolytica: A Central Role for Thioredoxin Reductase” (PLoS Biology, 2007).
